Some test systems named below: LOX IMVI; Malme-3M; K562; NCI-H460; SF-268; CAKI-1; SN12C; CCRF-CEM; IGROV-1; NCI-H522; SF-539; RPMI-8226; HL-60; HCT-116.
What all share (test): NCI anticancer screen, dose series, 48 h

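48-hour exposure; five concentrations; linearly interpolated endpoints. GI50 marks 50% less growth.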 The source made the active and inactive calls. Rule as the data show it: active = GI50 up to about 1.1 µM and inactive = higher. A value given as a limit tells only on which side of the number the result lay.

`C/C(=N\NC(N)=O)C(CN1CCCCC1)C(c1ccccc1)c1c(O)c2ccccc2oc1=O` (centres undefined): the GI50 in the test with LOX IMVI, in the test with Malme-3M, in the test on K562, in the test with NCI-H460, in the test with SF-268 and in the test with CAKI-1 was > 100 µM (inactive) throughout. Further, the GI50 with SN12C, in the test with CCRF-CEM, with IGROV-1, in the test with NCI-H522, with SF-539 and with RPMI-8226 was > 100 µM (inactive) each time. Also, the GI50 in the test with HL-60 and in the test with HCT-116 was > 100 µM (inactive) each time.
`COc1ccc2c(CCNS(=O)(=O)c3ccccc3)c(C(C)=O)[nH]c2c1[N+](=O)[O-]`: the GI50 in the test on LOX IMVI was > 100 µM (inactive); with K562, > 100 µM (inactive); in the test with NCI-H460 it was > 100 µM (inactive); with SF-268, 53.3 µM (inactive); with CAKI-1, > 10 µM (inactive); with SN12C, > 100 µM (inactive). In addition, the GI50 in the test with CCRF-CEM is > 100 µM (inactive); in the test with IGROV-1, > 100 µM (inactive); in the test on NCI-H522 it was > 100 µM (inactive); in the test with SF-539 it was 31.8 µM (inactive); in the test on RPMI-8226, > 100 µM (inactive); with HL-60, > 100 µM (inactive). Further, the GI50 in the test with HCT-116 was > 100 µM (inactive).
For `O=C1Nc2cc(Cl)ccc2N=CC1NC(=O)C(c1ccccc1)c1ccccc1Cl` (centres undefined), the GI50 was > 100 µM (inactive) in the test on LOX IMVI; > 100 µM (inactive) in the test with Malme-3M; > 100 µM (inactive) with K562; 57.9 µM (inactive) with NCI-H460; > 100 µM (inactive) in the test with SF-268; > 100 µM (inactive) in the test on CAKI-1. Moreover, the GI50 in the test on SN12C, in the test on CCRF-CEM, in the test on IGROV-1, with NCI-H522, with SF-539 and with RPMI-8226 was > 100 µM (inactive) in each case. Moreover, the GI50 in the test with HL-60 and in the test with HCT-116 was > 100 µM (inactive) in each case.
`CN(C)CCCSc1c2ccccc2nc2cc(NCC(=O)Nc3ccccc3-c3ccccc3NC(=O)CNc3ccc4c(SCCCN(C)C)c5ccccc5nc4c3)ccc12`: the GI50 in the test on LOX IMVI is > 100 µM (inactive); in the test with Malme-3M, 59.4 µM (inactive); in the test with K562, 71.4 µM (inactive); in the test with NCI-H460 it was > 100 µM (inactive); in the test with SF-268, > 100 µM (inactive); in the test on CAKI-1, > 100 µM (inactive). In addition, the GI50 with SN12C is > 100 µM (inactive); with CCRF-CEM it was 25.3 µM (inactive); with IGROV-1, > 100 µM (inactive); with NCI-H522, > 100 µM (inactive); in the test with SF-539, > 100 µM (inactive); in the test on RPMI-8226, 65 µM (inactive). The GI50 was 18.3 µM (inactive) in the test on HL-60 and > 100 µM (inactive) with HCT-116.
With `O=C(CC(=O)Nc1cccc(Cl)c1)NNCC(=O)Nc1nnc(-c2ccccc2)s1`, the GI50 was 43.2 µM (inactive) in the test on LOX IMVI; 27.4 µM (inactive) with K562; 11.1 µM (inactive) with NCI-H460; 31.8 µM (inactive) with SF-268; > 100 µM (inactive) in the test on CAKI-1; > 100 µM (inactive) in the test on SN12C. For the same molecule, the GI50 was > 100 µM (inactive) in the test with IGROV-1; 64.1 µM (inactive) in the test on NCI-H522; > 100 µM (inactive) in the test on SF-539; 14.2 µM (inactive) with RPMI-8226; 25.7 µM (inactive) in the test on HL-60; 24.8 µM (inactive) in the test with HCT-116.
For `COc1ccc(-c2cc(Cc3cccs3)c(=O)[nH]n2)cc1`, the GI50 in the test with Malme-3M, in the test with SF-268, in the test with SN12C, with IGROV-1, in the test with SF-539 and in the test on HCT-116 was > 100 µM (inactive) throughout.
As for `CC(C)C(Nc1c2ccccc2[n+]([O-])c2ccccc12)C(=O)O` (centres undefined), the GI50 with LOX IMVI was 50.9 µM (inactive); with Malme-3M, 28.1 µM (inactive); with K562, 38.5 µM (inactive); in the test on NCI-H460, > 100 µM (inactive); in the test on SF-268, 55.3 µM (inactive); in the test with CAKI-1 it was > 100 µM (inactive). In addition, the GI50 in the test on SN12C is 61.1 µM (inactive); in the test on CCRF-CEM, 47.8 µM (inactive); in the test with IGROV-1 it was > 100 µM (inactive); with NCI-H522 it was 81.3 µM (inactive); with RPMI-8226, 19.7 µM (inactive); in the test with HL-60, 26.2 µM (inactive). Also, the GI50 in the test with HCT-116 is 44.6 µM (inactive).
Consider `Cn1c(=O)c2[nH]cnc2n(CC(N)=O)c1=O`, for which the GI50 in the test with Malme-3M, in the test on K562, with NCI-H460, in the test with SF-268, with CAKI-1 and in the test on SN12C was > 100 µM (inactive) each time. For the same molecule, the GI50 in the test with CCRF-CEM, with IGROV-1, with NCI-H522, with SF-539, in the test on RPMI-8226 and in the test on HCT-116 was > 100 µM (inactive) throughout.
For the molecule `CCOc1ccc(NC(=O)/C(Cc2nc3ccccc3nc2O)=N\O)cc1`, the GI50 in the test on LOX IMVI, in the test with Malme-3M, in the test with K562, with NCI-H460, in the test with SF-268 and in the test with CAKI-1 was > 100 µM (inactive) throughout. The GI50 was > 100 µM (inactive) in the test with CCRF-CEM; > 100 µM (inactive) in the test with IGROV-1; > 100 µM (inactive) with NCI-H522; > 100 µM (inactive) in the test on SF-539; > 100 µM (inactive) with RPMI-8226; > 10 µM (inactive) with HL-60. For the same molecule, the GI50 in the test with HCT-116 is > 100 µM (inactive).
Take `CC(C)C1CO[C@]2(C)CCC(=O)N12` (some centres undefined): the GI50 in the test with Malme-3M, in the test with K562, in the test on NCI-H460, with SF-268, in the test with CAKI-1 and in the test with SN12C was > 100 µM (inactive) throughout. Also, the GI50 with CCRF-CEM, in the test with IGROV-1, with NCI-H522, in the test on SF-539, in the test with RPMI-8226 and in the test with HL-60 was > 100 µM (inactive) throughout. Besides, the GI50 in the test on HCT-116 was > 100 µM (inactive).
Take `CC1NOC(=O)C1/N=N/c1ccc(Cl)cc1Cl` (centres undefined): the GI50 in the test on LOX IMVI is 27.2 µM (inactive); in the test on Malme-3M, 25.5 µM (inactive); in the test with K562, 25.2 µM (inactive); with NCI-H460, 24.7 µM (inactive); in the test on SF-268 it was 32.2 µM (inactive); with CAKI-1, 24.4 µM (inactive). In addition, the GI50 was 21.6 µM (inactive) in the test with SN12C; 30.9 µM (inactive) with CCRF-CEM; 26.9 µM (inactive) with IGROV-1; 17.8 µM (inactive) in the test with NCI-H522; 47.4 µM (inactive) in the test with SF-539; 16 µM (inactive) in the test on HL-60. Besides, the GI50 in the test on HCT-116 was 21.9 µM (inactive).
`COc1ccc(-c2cc(-c3ccccc3)c(C#N)c(=O)[nH]2)cc1`: the GI50 in the test with LOX IMVI, in the test on Malme-3M, in the test on K562, in the test with NCI-H460, in the test with SF-268 and in the test on SN12C was > 100 µM (inactive) in each case. Moreover, the GI50 in the test with CCRF-CEM, in the test on IGROV-1, in the test with NCI-H522, in the test on SF-539, in the test with RPMI-8226 and in the test with HL-60 was > 100 µM (inactive) each time. Besides, the GI50 in the test with HCT-116 is > 100 µM (inactive).
Regarding `CCOC(=O)C1S/C(=N\c2ccc(Cl)cc2)N=C1C` (centres undefined), the GI50 in the test on LOX IMVI was 18.6 µM (inactive); with Malme-3M, 19.9 µM (inactive); with K562, 19.4 µM (inactive); in the test on NCI-H460, 23.6 µM (inactive); in the test on SF-268, 17 µM (inactive); with SN12C, 17.5 µM (inactive). Further, the GI50 was 19.5 µM (inactive) in the test on IGROV-1; 17.3 µM (inactive) in the test on NCI-H522; 17.9 µM (inactive) with SF-539; 27.9 µM (inactive) in the test with RPMI-8226; 23 µM (inactive) in the test on HL-60; 16.6 µM (inactive) in the test on HCT-116.
For `CN1CCN(CCNc2ccc(CO)c3sc4ccccc4c(=O)c23)CC1`, the GI50 in the test on Malme-3M was 11.5 µM (inactive); with K562, 3.84 µM (inactive); in the test on NCI-H460, 4.34 µM (inactive); in the test on SF-268, 11.6 µM (inactive); with CAKI-1, 11.9 µM (inactive); with CCRF-CEM, 4.34 µM (inactive). Further, the GI50 in the test with IGROV-1 was 11.1 µM (inactive); in the test on NCI-H522, 3.38 µM (inactive); with SF-539 it was 13.2 µM (inactive); with RPMI-8226, 10.9 µM (inactive); in the test with HL-60 it was 8.93 µM (inactive); with HCT-116, 5.69 µM (inactive).
With `Nn1c(S)nnc1NNC(=O)C(=O)Nc1cc(Cl)c(Cl)cc1Cl`, the GI50 in the test on LOX IMVI was > 100 µM (inactive); in the test on Malme-3M, > 100 µM (inactive); in the test on K562, 0.012 µM (active); in the test on NCI-H460 it was > 100 µM (inactive); in the test with SF-268, > 100 µM (inactive); with CAKI-1, > 100 µM (inactive). Besides, the GI50 was > 100 µM (inactive) in the test with SN12C; 20 µM (inactive) in the test on CCRF-CEM; > 100 µM (inactive) with IGROV-1; > 100 µM (inactive) in the test on NCI-H522; > 100 µM (inactive) with SF-539; > 100 µM (inactive) in the test on HCT-116.
`CCN(CC)CC(C(=O)Nc1c(C)cccc1C)/C(C)=N\NC(=O)C[N+](C)(C)C` (centres undefined): the GI50 in the test with LOX IMVI, with Malme-3M, with K562, in the test with NCI-H460, in the test on SF-268 and in the test on CAKI-1 was > 100 µM (inactive) each time. Moreover, the GI50 in the test on SN12C, in the test with IGROV-1, with NCI-H522, with SF-539, with RPMI-8226 and with HL-60 was > 100 µM (inactive) throughout. The GI50 with HCT-116 was > 100 µM (inactive).

The record behind these values is ChEMBL document CHEMBL1201862, “PubChem BioAssay data set” (2004).
